Measured values from paper PMC3573263 (Chemical biology & drug design, 2013).

How the values were obtained:
wild-type YopH = wild-type YopH (Yersinia pestis, UniProt O68720); test: biochemical; format: binding
N-terminus of YopH = details: read-out: equilibrium dissociation constant; cited from earlier work
YopH [1] = target: T1, YopH (Yersinia pestis, UniProt O68720); details: cited from earlier work
YopH [2] = target: T1, YopH
[3] = target: YopH N-terminus (Yersinia pestis) (UniProt P08538); test: NMR; details: cited from earlier work
YopH N-terminus (Yersinia pestis), sequence (P08538 1-129): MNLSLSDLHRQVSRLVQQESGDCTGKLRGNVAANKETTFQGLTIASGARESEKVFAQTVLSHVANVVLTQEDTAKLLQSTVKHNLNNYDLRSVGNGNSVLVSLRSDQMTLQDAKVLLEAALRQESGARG

T1 sequence (O68720 164-468 limits assumed): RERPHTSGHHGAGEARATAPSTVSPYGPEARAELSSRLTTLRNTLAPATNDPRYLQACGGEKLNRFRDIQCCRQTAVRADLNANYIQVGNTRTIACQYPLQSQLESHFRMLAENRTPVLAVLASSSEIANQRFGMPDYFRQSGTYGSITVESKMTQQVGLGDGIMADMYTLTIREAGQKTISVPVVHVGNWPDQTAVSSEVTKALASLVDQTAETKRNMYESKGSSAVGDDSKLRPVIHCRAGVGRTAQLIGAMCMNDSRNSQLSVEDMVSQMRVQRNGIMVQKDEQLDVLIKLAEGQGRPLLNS
wild-type YopH, sequence (O68720 164-468 limits assumed): as above

Compound | koff (wild-type YopH) | kon (wild-type YopH) | ΔG (wild-type YopH) | other results
O=C(O)c1ccc(/C=N/OCc2ccc(-c3cccc(C(F)(F)P(=O)(O)O)c3)cc2)o1 [compound 3, 5-((1E)-(((4-(3-(difluoro(phosphono)methyl)phenyl)phenyl)methoxy)imino)methyl)furan-2-carboxylic acid] | 0.945 (0.13) | 44.5 M⁻¹ s⁻¹ |  | Kd (wild-type YopH): 239 µM
DADEpYL [hexapeptide] |  |  |  | Kd (N-terminus of YopH): 10 µM
N[C@@H](Cc1ccc(OP(=O)(O)O)cc1)C(=O)O [L-phosphotyrosine, reference compound] | 0.679 | 0.278 M⁻¹ s⁻¹ | -2.2 kcal/mol | Kd (wild-type YopH): 24400 µM
DADE-pYLIPQQG |  |  |  | rate constant for dephosphorylation (YopH [1]): 2.23e+07 M⁻¹ s⁻¹
(difluoro((3-(4-((((E)-furan-3-ylmethylidene)amino)oxy)methyl)phenyl)phenyl))methyl) phosphonic acid [compound 1] | 1.95 (0.95) | 73.4 (34.8) 1/Ms | −4.88 (0.43) kcal/ mol | inhibition of PTPase activity on microarrayed pTyr-EGFR peptide (in words) (YopH [2]): dose-response relationship
(difluoro((3-(4-((((E)-furan-2-ylmethylidene)amino)oxy)methyl)phenyl)phenyl))methyl) phosphonic acid [compound 2] | 2.15 (0.89) |  | −5.28 (0.20) kcal/ mol | 
EGFR phosphopeptide (from UniProt P00533) |  |  |  | Kd [3]: 10 µM
O=[N+]([O-])c1ccc(OP(=O)(O)O)cc1 [pNPP, para-nitrophenylphosphate] |  |  |  | catalytic activity of YopH toward substrate, lower than the pTyr-containing peptide (YopH [1]): 1300 fold
